# Source: patent publication US8435990B2, “Dihydropyrimidone amides as P2X7 modulators” (Roche Palo Alto LLC, priority 2009, dated 2013)
# Biological target: T1, human P2X7 (Homo sapiens, UniProt Q99572)
# T1 construct: 1321N1 cells stably expressing the full length human P2X7 gene (1321N1-hP2X7)
# T1 sequence (Q99572 1-595): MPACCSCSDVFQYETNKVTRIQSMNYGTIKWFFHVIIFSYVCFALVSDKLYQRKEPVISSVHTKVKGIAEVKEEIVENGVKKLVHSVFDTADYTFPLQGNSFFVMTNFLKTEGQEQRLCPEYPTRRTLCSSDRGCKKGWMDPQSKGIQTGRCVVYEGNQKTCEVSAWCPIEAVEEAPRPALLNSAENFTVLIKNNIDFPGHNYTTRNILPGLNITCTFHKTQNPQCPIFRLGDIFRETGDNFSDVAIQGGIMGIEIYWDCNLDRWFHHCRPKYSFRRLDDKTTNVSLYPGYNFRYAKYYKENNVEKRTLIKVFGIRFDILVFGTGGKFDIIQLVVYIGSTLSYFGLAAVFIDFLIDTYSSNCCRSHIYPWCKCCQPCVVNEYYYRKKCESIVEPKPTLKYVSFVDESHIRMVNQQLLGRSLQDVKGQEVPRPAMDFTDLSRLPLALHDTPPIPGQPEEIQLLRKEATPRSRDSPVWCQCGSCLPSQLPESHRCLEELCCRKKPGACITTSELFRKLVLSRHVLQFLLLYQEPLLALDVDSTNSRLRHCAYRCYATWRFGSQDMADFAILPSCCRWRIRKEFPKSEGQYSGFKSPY
# Assay: P2X7 modulator pIC50 of Table 1 (assay not given; Intracellular Calcium Flux (FLIPR) Assay assumed)
# Format: cell-based
# Method in brief: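 1321N1 cells expressing human P2X7, fluo-3 loaded, pre-equilibrated 20 min at RT with antagonist; 100 μM BzATP agonist added and calcium fluorescence recorded 5 min on FLIPR. BzATP-evoked maximum normalised to 5 μM ionomycin response. HEK293 rat P2X7 cells used 5 μM BzATP.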
row,SMILES,IC50 [nM]
1,"CCn1nccc(-c2ccc(C)c(NC(=O)C3=CN(C)C(=O)N[C@H]3c3ccc(F)cc3)c2)c1=O [Compound 38, (S)-4-(4-Fluoro-phenyl)-1-methyl-2-oxo-1,2,3,4-tetrahydro-pyrimidine-5-carboxylic acid [5-(2-ethyl-3-oxo-2,3-dihydro-pyridazin-4-yl)-2-methyl-phenyl]-amide]",14.3
2,"Cc1cc(Cl)c(-n2cccc(C)c2=O)cc1NC(=O)C1=CN(C)C(=O)N[C@H]1c1ccc(F)cc1 [Compound 66, (S)-4-(4-Fluoro-phenyl)-1-methyl-2-oxo-1,2,3,4-tetrahydro-pyrimidine-5-carboxylic acid [4-chloro-2-methyl-5-(3-methyl-2-oxo-2H-pyridin-1-yl)-phenyl]-amide]",19.5
3,"Cc1cc(-c2ccc(C)c(NC(=O)C3=CN(C)C(=O)N[C@H]3c3cccc(F)c3)c2)n[nH]1 [Compound 33, (S)-4-(3-Fluoro-phenyl)-1-methyl-2-oxo-1,2,3,4-tetrahydro-pyrimidine-5-carboxylic acid [2-methyl-5-(5-methyl-1H-pyrazol-3-yl)-phenyl]-amide]",107
4,"Cc1ccc(-c2ccn[nH]c2=O)cc1NC(=O)C1=CN(C)C(=O)N[C@H]1c1ccc(F)cc1 [Compound 32, (S)-4-(4-Fluoro-phenyl)-1-methyl-2-oxo-1,2,3,4-tetrahydro-pyrimidine-5-carboxylic acid [2-methyl-5-(3-oxo-2,3-dihydro-pyridazin-4-yl)-phenyl]-amide]",21.1
5,"Cc1cc(Cl)c(OCCO)cc1NC(=O)C1=CN(C)C(=O)NC1c1ccccc1 (stereo not shown) [Compound 62, 1-Methyl-2-oxo-4-phenyl-1,2,3,4-tetrahydro-pyrimidine-5-carboxylic acid [4-chloro-5-(2-hydroxy-ethoxy)-2-methyl-phenyl]-amide]",15
6,"CN1C=C(C(=O)Nc2cc(N3CCCC3=O)ccc2Br)[C@H](c2ccc(F)cc2)NC1=O [Compound 45, (S)-4-(4-Fluoro-phenyl)-1-methyl-2-oxo-1,2,3,4-tetrahydro-pyrimidine-5-carboxylic acid [2-bromo-5-(2-oxo-pyrrolidin-1-yl)-phenyl]-amide]",138
7,"Cc1ccc(-c2ccnn(C)c2=O)cc1NC(=O)C1=CN(C)C(=O)N[C@H]1c1ccccc1 [Compound 57, (S)-1-Methyl-2-oxo-4-phenyl-1,2,3,4-tetrahydro-pyrimidine-5-carboxylic acid [2-methyl-5-(2-methyl-3-oxo-2,3-dihydro-pyridazin-4-yl)-phenyl]-amide]",3470
8,"COc1cc(C)c(NC(=O)C2=CN(C)C(=O)N[C@H]2c2ccc(F)cc2)cc1OC [Compound 6, (S)-4-(4-Fluoro-phenyl)-1-methyl-2-oxo-1,2,3,4-tetrahydro-pyrimidine-5-carboxylic acid (4,5-dimethoxy-2-methyl-phenyl)-amide]",35.1
9,"COC[C@H](O)Cn1nc(-c2ccc(C)c(NC(=O)C3=CN(C)C(=O)N[C@H]3c3ccc(F)cc3)c2)cc1C [Compound 24, (S)-4-(4-Fluoro-phenyl)-1-methyl-2-oxo-1,2,3,4-tetrahydro-pyrimidine-5-carboxylic acid {5-[1-((R)-2-hydroxy-3-methoxy-propyl)-5-methyl-1H-pyrazol-3-yl]-2-methyl-phenyl}-amide]",50.7
10,"Cc1ccc(-n2ncc(=O)n(C)c2=O)cc1NC(=O)C1=CN(C)C(=O)N[C@H]1c1cccc(F)c1 [Compound 37, (S)-4-(3-Fluoro-phenyl)-1-methyl-2-oxo-1,2,3,4-tetrahydro-pyrimidine-5-carboxylic acid [2-methyl-5-(4-methyl-3,5-dioxo-4,5-dihydro-3H-[1,2,4]triazin-2-yl)-phenyl]-amide]",36.3
11,"Cc1ccc(-c2ccnn(C)c2=O)cc1NC(=O)C1=CN(C)C(=O)N[C@H]1c1cccc(F)c1 [Compound 44, (S)-4-(3-Fluoro-phenyl)-1-methyl-2-oxo-1,2,3,4-tetrahydro-pyrimidine-5-carboxylic acid [2-methyl-5-(2-methyl-3-oxo-2,3-dihydro-pyridazin-4-yl)-phenyl]-amide]",54.3
12,"Cc1cnn(-c2ccc(C)c(NC(=O)C3=CN(C)C(=O)N[C@H]3c3ccc(F)cc3)c2)c1 [Compound 15, (S)-4-(4-Fluoro-phenyl)-1-methyl-2-oxo-1,2,3,4-tetrahydro-pyrimidine-5-carboxylic acid [2-methyl-5-(4-methyl-pyrazol-1-yl)-phenyl]-amide]",14.1
13,"Cc1ccc(-c2ccnn(C)c2=O)cc1NC(=O)C1=CN(C)C(=O)N[C@H]1c1ccc(F)cc1 [Compound 22, (S)-4-(4-Fluoro-phenyl)-1-methyl-2-oxo-1,2,3,4-tetrahydro-pyrimidine-5-carboxylic acid [2-methyl-5-(2-methyl-3-oxo-2,3-dihydro-pyridazin-4-yl)-phenyl]-amide]",11.5
14,"Cc1ccc(-c2ccc(=O)n(CCO)n2)cc1NC(=O)C1=CN(C)C(=O)N[C@H]1c1ccc(F)cc1 [Compound 59, (S)-4-(4-Fluoro-phenyl)-1-methyl-2-oxo-1,2,3,4-tetrahydro-pyrimidine-5-carboxylic acid {5-[1-(2-hydroxy-ethyl)-6-oxo-1,6-dihydro-pyridazin-3-yl]-2-methyl-phenyl}-amide]",16.8
15,"Cc1ccc(-c2cccn(C)c2=O)cc1NC(=O)C1=CN(C)C(=O)N[C@H]1c1ccc(F)cc1 [Compound 60, (S)-4-(4-Fluoro-phenyl)-1-methyl-2-oxo-1,2,3,4-tetrahydro-pyrimidine-5-carboxylic acid [2-methyl-5-(1-methyl-2-oxo-1,2-dihydro-pyridin-3-yl)-phenyl]-amide]",5.5
16,"COc1cc(C)c(NC(=O)C2=CNC(=O)N[C@H]2c2ccc(F)cc2)cc1OC [Compound 4, (S)-4-(4-Fluoro-phenyl)-2-oxo-1,2,3,4-tetrahydro-pyrimidine-5-carboxylic acid (4,5-dimethoxy-2-methyl-phenyl)-amide]",59.8
